20 compounds from ChEMBL document CHEMBL2157917, “Targeting conserved water molecules: design of 4-aryl-5-cyanopyrrolo[2,3-d]pyrimidine Hsp90 inhibitors using fragment-based screening and structure-based optimization” (Bioorg Med Chem, 2012) can be followed below.

One assay deals with MDA-MB-468. The assay can be described thus: Antiproliferative activity against human MDA-MB-468 cells after 4 days by SRB method. Conditions: MDA-MB-468, 96 h. It is filed as functional. (The SRB assay estimates cell density from bound dye.)
The test system of another assay is HCT-116. The experiment in a line: Antiproliferative activity against human HCT116 cells after 4 days by SRB method. Type of assay: functional. Conditions: HCT-116, 96 h.
Assay [1] concerns the target Heat shock protein HSP 90-beta (Homo sapiens, UniProt P08238). The assay can be described thus: Inhibition of fluorescently labeled VER51001 binding to full length human HSP90beta after 30 mins by fluorescence polarization assay. Background: Polarisation of emitted light reports the rotation of a fluorescent probe.
The next assay has as its system BT-474. The experiment in a line: Antiproliferative activity against human BT474 cells after 4 days by SRB method. It is filed as functional. Conditions: BT-474, 96 h.

Heat shock protein HSP 90-beta, sequence (P08238 whole entry): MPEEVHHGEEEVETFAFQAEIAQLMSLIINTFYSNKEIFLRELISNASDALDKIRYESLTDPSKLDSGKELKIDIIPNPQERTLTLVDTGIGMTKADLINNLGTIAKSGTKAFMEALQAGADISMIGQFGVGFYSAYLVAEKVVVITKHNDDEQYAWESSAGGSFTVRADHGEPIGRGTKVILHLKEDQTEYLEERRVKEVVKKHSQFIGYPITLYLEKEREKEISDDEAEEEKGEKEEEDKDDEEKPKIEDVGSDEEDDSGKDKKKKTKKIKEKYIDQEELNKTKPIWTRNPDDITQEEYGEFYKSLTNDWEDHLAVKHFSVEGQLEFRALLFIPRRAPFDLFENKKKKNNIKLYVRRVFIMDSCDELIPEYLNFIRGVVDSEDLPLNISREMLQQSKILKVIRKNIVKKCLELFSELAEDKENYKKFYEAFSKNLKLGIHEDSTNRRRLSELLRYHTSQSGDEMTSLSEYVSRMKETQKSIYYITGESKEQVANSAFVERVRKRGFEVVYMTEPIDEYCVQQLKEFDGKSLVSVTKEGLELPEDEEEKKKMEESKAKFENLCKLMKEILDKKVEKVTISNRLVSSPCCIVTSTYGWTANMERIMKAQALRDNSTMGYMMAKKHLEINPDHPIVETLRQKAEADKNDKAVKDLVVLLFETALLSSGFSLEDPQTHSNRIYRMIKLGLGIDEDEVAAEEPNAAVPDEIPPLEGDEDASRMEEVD

What is called GI50 is the concentration that inhibits growth by half. High values mean less potent growth inhibition, low ones more potent growth inhibition. A word on the Ki: it is the equilibrium dissociation constant of an inhibitor or competing ligand from its target. As to `CCNC(=O)CSc1nc(-c2cc(OCC)c(OC)cc2Cl)c2c(C#N)c[nH]c2n1`, the GI50 is 64 nM with MDA-MB-468, 40 nM in the assay with HCT-116 and 44 nM in the assay on BT-474. In assay [1], this compound had an inhibition constant Ki of under 1 nM.
`COc1cc(Cl)c(-c2nc(SCC(=O)NC(C)(C)C)nc3[nH]cc(C#N)c23)cc1OC`: the GI50 amounted to 84 nM in the assay with MDA-MB-468, 50 nM in the assay on HCT-116 and 121 nM in the assay on BT-474. In assay [1], this compound displayed a Ki of under 1 nM.
With `COc1cc(Cl)c(-c2nc(SCC(=O)NC(C)C)nc3[nH]cc(C#N)c23)cc1OC`, the values for the GI50 in the assay with MDA-MB-468, in the assay with HCT-116 and in the assay on BT-474 were 102 nM, 81 nM and 81 nM, respectively. In assay [1], this compound yielded a Ki of under 1 nM.
Consider `COc1cc(Cl)c(-c2nc(SCC(=O)NCCF)nc3[nH]cc(C#N)c23)cc1OC`, for which the figures for the GI50 with MDA-MB-468, with HCT-116 and in the assay on BT-474 were 178 nM, 98 nM and 136 nM, respectively. Also, the Ki in assay [1] was determined as 5 nM.
For `COc1cc(Cl)c(-c2nc(SCC(=O)NCC(F)(F)F)nc3[nH]cc(C#N)c23)cc1OC`, in that order: 124 nM, 153 nM, 45 nM and under 1 nM.
As for `COc1cc(Cl)c(-c2nc(SCC(=O)NC(C)(C)C)nc3[nH]cc(C#N)c23)cc1O`, the GI50 stood at 152 nM in the assay on MDA-MB-468, 117 nM in the assay with HCT-116 and 128 nM with BT-474. In addition, the inhibition constant Ki in assay [1] was under 1 nM.
Compound `CCN(CC)CCSc1nc(-c2cc(OC)c(OC)cc2Cl)c2c(C#N)c[nH]c2n1` showed a Ki in assay [1] of 7 nM. This compound displayed a 50% growth inhibitory concentration (GI50) in the assay on BT-474 of 26 nM.
For `COc1cc(Cl)c(-c2nc(SC(C)C)nc3[nH]cc(C#N)c23)cc1OCCN1CCC(F)(F)C1`, in that order: 172 nM and 388 nM.
As to `CCN(CC)CCSc1nc(-c2cc(OC)c(C#N)cc2Cl)c2c(C#N)c[nH]c2n1`, the Ki in assay [1] was under 1 nM. Growth with BT-474 was halved (GI50) at 80 nM.
As to `COc1cc(Cl)c(-c2nc(SCC(=O)NCCF)nc3[nH]cc(C#N)c23)cc1O`, the concentration for 50% growth inhibition (GI50) with MDA-MB-468 came to 183 nM; in the assay on HCT-116, 728 nM; with BT-474 it was 85 nM. Moreover, the inhibition constant Ki in assay [1] is 2 nM.
Taken in the same sequence, the figures for `CNC(=O)CSc1nc(-c2cc(OC)c(OC)cc2Cl)c2c(C#N)c[nH]c2n1` were 33 nM, 42 nM, 56 nM and under 1 nM.
The compound `CCN(CC)CCOc1cc(-c2nc(SC)nc3[nH]cc(C#N)c23)c(Cl)cc1Cl` yielded an inhibition constant (Ki) in assay [1] of 2 nM. This compound had a GI50 with BT-474 of 31 nM.
Take `CCOc1cc(-c2nc(SCC(=O)NC3CC3)nc3[nH]cc(C#N)c23)c(Cl)cc1OC`: the concentration for 50% growth inhibition (GI50) came out at 23 nM in the assay with MDA-MB-468, 20 nM with HCT-116 and 25 nM with BT-474. Besides, the inhibition constant Ki in assay [1] is under 1 nM.
Taken in the same sequence, the figures for `COc1cc(Cl)c(-c2nc(SCC(=O)NC3CC3)nc3[nH]cc(C#N)c23)cc1OC` were 62 nM, 60 nM, 69 nM and under 1 nM.
Consider `CCOc1cc(-c2nc(SCC(=O)NC(C)C)nc3[nH]cc(C#N)c23)c(Cl)cc1OC`, for which the GI50 in the assay with MDA-MB-468 is 77 nM; in the assay on HCT-116 it was 65 nM; in the assay with BT-474, 84 nM. In assay [1], this compound showed an inhibitory constant (Ki) of under 1 nM.
Consider `CSc1nc(-c2cc(OCCN3CCCC3)c(Cl)cc2Cl)c2c(C#N)c[nH]c2n1`, for which, in assay [1], the Ki came out at 4 nM. In the assay on BT-474, this compound gave a 50% growth inhibitory concentration (GI50) of 48 nM.
`COc1cc(Cl)c(-c2nc(SC)nc3[nH]cc(C#N)c23)cc1OCCN1CC[C@H](F)C1`: the Ki in assay [1] worked out at 3 nM. Moreover, in the assay on BT-474, the GI50 came to 31 nM.
In assay [1], `COc1cc(Cl)c(-c2nc(SC)nc3[nH]cc(C#N)c23)cc1OCCN1CCC(F)(F)C1` showed a Ki of 12 nM. This compound came in with a 50% growth inhibitory concentration (GI50) in the assay with BT-474 of 47 nM.
For `CCN(CC)CCSc1nc(-c2cc(OC)c(Cl)cc2Cl)c2c(C#N)c[nH]c2n1`, in that order: under 1 nM and 72 nM.
In turn, `CCN(CC)CCOc1nc(-c2cc(OC)c(Cl)cc2Cl)c2c(C#N)c[nH]c2n1` yielded an inhibition constant Ki in assay [1] of 62 nM. The compound also displayed a GI50 with BT-474 of 2010 nM.
